Measured values reported in patent US20230391778A1, “INDOLIN-2-ONE OR PYRROLO -PYRIDIN -2 -ONE DERIVATIVES” (Hoffmann-La Roche Inc., priority 2014, published 2023).

What was measured:
mouse ENT-1 transporter = biological target: T1, mouse ENT-1 transporter (Mus musculus, UniProt Q9JIM1); assay: Measure of adenosine transport activity (ENT1 adenosine uptake inhibition); assay type: cell-based; conditions: stable cells expressing mouse ENT-1, [2,8-3H]-adenosine 6 nM, 20 min
T1 construct: expressed in transfected cells
T1 sequence (Q9JIM1 1-460): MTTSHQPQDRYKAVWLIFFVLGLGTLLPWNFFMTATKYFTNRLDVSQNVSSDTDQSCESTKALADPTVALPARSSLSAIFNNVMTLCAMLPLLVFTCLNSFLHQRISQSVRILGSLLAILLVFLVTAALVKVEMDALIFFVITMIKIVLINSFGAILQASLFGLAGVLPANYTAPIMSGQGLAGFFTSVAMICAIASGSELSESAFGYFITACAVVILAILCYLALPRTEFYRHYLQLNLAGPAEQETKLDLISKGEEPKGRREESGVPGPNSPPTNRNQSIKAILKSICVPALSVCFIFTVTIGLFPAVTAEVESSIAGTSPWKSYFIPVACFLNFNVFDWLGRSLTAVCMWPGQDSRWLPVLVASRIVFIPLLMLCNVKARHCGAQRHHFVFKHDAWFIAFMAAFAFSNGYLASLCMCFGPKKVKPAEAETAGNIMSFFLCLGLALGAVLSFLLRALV
In short: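 Stable mouse ENT-1 cells, 60,000/well, washed into pH 7.4 Hepes-Tris uptake buffer and incubated at RT with compound (1% DMSO final) for 20 min with shaking. Non-specific uptake defined with 10 μM NBTI; cell-associated radioactivity counted by scintillation after ice-cold washes.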

[1] = system: L-687,414-induced hyperlocomotion; assay: L-687,414-induced hyperlocomotion; assay type: in vivo, mouse; conditions: Mus musculus; Dose ip 30 mg/kg, mice, 50 mg/kg s.c. L-687,414
Description: The described compounds of formula I reduce L-687,414-induced hyperlocomotion. This was assessed by using a computerized Digiscan 16 Animal Activity Monitoring System (Omnitech Electronics, Columbus, Ohio) to quantify locomotor activity. Animals were kept under a 12 h light/dark cycle and experiments were performed during the light period. Each activity monitoring chamber consisted of a Plexiglas box (41×41×28 cm; W×L×H) with sawdust bedding on the floor surrounded by invisible horizontal and vertical infrared sensor beams. The test boxes were divided by a Plexiglas cross providing each mouse with 20×20 cm of moving space. Cages were connected to a Digiscan Analyzer linked to a computer that constantly collected the beam status information. Records of photocell beam interruptions for individual animals were taken every 5 min over the duration of the experimental session and the sum of the first 6 periods was used as the final parameter. At least 8 mice were used in each treatment group. Compounds were administered either p.o. 15 min before a s.c. injection of 50 mg/kg of L-687,414, or i.p. at the same time as a s.c. injection of 50 mg/kg of L-687,414. Mice were then transferred from their home cage to the recording chambers for a 15-min habituation phase allowing free exploration of the new environment. Horizontal activity was then recorded for a 30-min time period. The % inhibition of L-687,414-induced hyperlocomotion was calculated according to the equation:
((Veh+L-687,414 horizontal activity−drug+L-687,414 horizontal activity)/Veh+L-687,414 horizontal activity)×100
ID50 values, defined as doses of each compound producing 50% inhibition of L-687,414-induced hyperlocomotion, were calculated by linear regression analysis of a dose-response data using an Excel-based computer-fitting program.
As data was not presupposed to be normally distributed, groups treated with test compounds were statistically compared with the control (vehicle-treated) group using one-tailed Mann Whitney U tests. In statistics, the Mann-Whitney U test (also called the Mann-Whitney-Wilcoxon (MWW) or Wilcoxon rank-sum test) is a non-parametric statistical hypothesis test for assessing whether one of two samples of independent observations tends to have larger values than the other. It is one of the most well-known non-parametric significance tests. […] P values given in table 1 are one-tailed since only decreases in locomotion were expected and tested for (Mann, H. B., Whitney, D. R. (1947), “On a Test of Whether one of Two Random Variables is Stochastically Larger than the Other”, Annals of Mathematical Statistics, 18 (1), 50-60).

mice = assay: SmartCube behavioral signature similarity analysis; assay type: in vivo, mouse; design: key to discrimination rate vs Clozapine (similarity analysis) / discrimination rate vs Olanzapine (similarity analysis) / discrimination rate vs Risperidone (similarity analysis): fraction; 0.5 = zero distinguishability between the two drugs; conditions: for discrimination rate vs Clozapine (similarity analysis) / discrimination rate vs Olanzapine (similarity analysis) / discrimination rate vs Risperidone (similarity analysis): 5 mg/kg i.p., SmartCube, rate of 0.70 or lower = similar
Source text: In addition to the reversal of L-687,414 induced hyperlocomotion experiment as described above, some compounds of the present invention have been tested in SmartCube®, an automated system in which the behaviors of compound-treated mice in response to multiple challenges are captured by digital video and analyzed with computer algorithms (Roberds et al., Frontiers in Neuroscience, 2011, Vol. 5, Art. 103, 1-4; Vadim Alexandrov, Dani Brunner, Taleen Hanania, Emer Leahy Eur. J. Pharmacol. 2015, 750, 82-99). In this way, the neuro-pharmacological effects of a test compound can be predicted by similarity to major classes of compounds, such as antipsychotics, anxiolytics and antidepressants.
As mentioned above, some compounds have been tested in SmartCube©, an analytical system developed by PsychoGenics Inc.
SmartCube® was used to compare the behavioral signature of a test compound to a database of behavioral signatures obtained from a large set of clinically approved reference drugs, grouped per indications. In this way, the neuro-pharmacological effects of a test compound can be predicted by similarity to major classes of compounds, such as antipsychotics, anxiolytics and antidepressants. This approach is ideally suited to screen collections of existing drugs or drug candidates with previously unknown neuropharmacology, which could expedite the development of new and unexpected treatments for psychiatric disorders.
Some compounds of the present invention were injected i.p. at different doses 15 minutes before the test. At least 8 mice were used in each treatment group. Digital videos of the subjects were processed with computer vision algorithms to extract over 2000 dependent measures including frequency and duration of many different behavioral states. The results of the classifications are presented as bar charts for each compound and dose (mg/kg), the Y-axis indicates the relative probability that the test compound will show efficacy in the specific CNS indication.
For comparison, the behavioral signatures of the atypical antipsychotics clozapine, olanzapine and risperidone are shown in FIG. 2. Compounds of the present invention show similar signatures to those of atypical antipsychotics. An independent analysis was performed on the unclassified data to determine the similarity of the example compounds to active doses of known atypical antipsychotics. For this analysis, we use discrimination rate as the measure of separability between the two drugs, i.e. one drug's “distinguishability” from another. A rate equal to 50% (or 0.5) corresponds to zero distinguishability. […] In most cases, the example compounds show a similarity to risperidone, clozapine and olanzapine with a discrimination rate of <0.70.

## Cc1ncc(-c2ccc3c(c2)N(c2cnc(C)nc2)C(=O)C3(C)C)cn1 [Example 9, 3,3-Dimethyl-1,6-bis(2-methylpyrimidin-5-yl)indolin-2-one]
Mouse ENT-1 transporter
  IC50: 0.174 µM
[1]
  inhibition in vivo at 30 mg/kg: 93.2%
mice
  SmartCube similarity to major drug classes: similarity to atypical antipsychotics
  discrimination rate vs Clozapine (similarity analysis): 0.65
  discrimination rate vs Olanzapine (similarity analysis): 0.66
  discrimination rate vs Risperidone (similarity analysis): 0.69

## Cc1cc(N2C(=O)C(C)(C)c3ccc(-c4cnc(C)nc4)cc32)c(F)cn1 [Example 25, 1-(5-Fluoro-2-methylpyridin-4-yl)-3,3-dimethyl-6-(2-methylpyrimidin-5-yl)indolin-2-one]
mice
  SmartCube similarity to major drug classes: similarity to atypical antipsychotics
  discrimination rate vs Clozapine (similarity analysis): 0.61
  discrimination rate vs Olanzapine (similarity analysis): 0.62
  discrimination rate vs Risperidone (similarity analysis): 0.74

## Cc1ccc(N2C(=O)C(C)(C)c3ccc(-c4cnc(C)nc4)cc32)nn1 [Example 48, 3,3-Dimethyl-1-(6-methylpyridazin-3-yl)-6-(2-methylpyrimidin-5-yl)indolin-2-one]
Mouse ENT-1 transporter
  IC50: 0.055 µM
mice
  SmartCube similarity to major drug classes: similarity to atypical antipsychotics
  discrimination rate vs Clozapine (similarity analysis): 0.58
  discrimination rate vs Olanzapine (similarity analysis): 0.61
  discrimination rate vs Risperidone (similarity analysis): 0.67

## Cc1cnc(N2C(=O)C(C)(C)c3ccc(-c4cnc(C)nc4)cc32)nc1 [Example 53, 3,3-Dimethyl-1-(5-methylpyrimidin-2-yl)-6-(2-methylpyrimidin-5-yl)indolin-2-one]
Mouse ENT-1 transporter
  IC50: 1.52 µM
mice
  SmartCube similarity to major drug classes: similarity to atypical antipsychotics
  discrimination rate vs Clozapine (similarity analysis): 0.59
  discrimination rate vs Olanzapine (similarity analysis): 0.61
  discrimination rate vs Risperidone (similarity analysis): 0.62
